Among the data in paper PMC11129182, “Development of Inhibitors, Probes, and PROTAC Provides a Complete Toolbox to Study PARK7 in the Living Cell” (Journal of Medicinal Chemistry, 2024) are inhibition values, retold here.

This assay deals with T1, PARK7 (Homo sapiens, UniProt Q99497).
T1 sequence (Q99497 1-189): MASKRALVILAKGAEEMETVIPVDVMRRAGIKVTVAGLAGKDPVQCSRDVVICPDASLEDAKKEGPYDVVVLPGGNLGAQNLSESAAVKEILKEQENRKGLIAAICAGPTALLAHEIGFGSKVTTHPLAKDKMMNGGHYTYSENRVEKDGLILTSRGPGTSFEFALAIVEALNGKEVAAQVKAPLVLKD
The assay can be described thus: High-throughput screen of the crude compound library, PARK7 fluorescence polarization (FP) assay with FP reagent JYQ-107. The format is biochemical. The note with it: read-out: HTS FP assay %Inhibition (1.25 µM). The source says: Therefore, taking JYQ-88 as a starting point, we conducted an optimization to further improve the molecule in terms of inhibitory potency, specificity, and cellular uptake. […] First, a small tailored library was designed and synthesized to investigate whether the introduction of larger, hydrophilic substituents on JYQ-88 would enhance the interaction with the PARK7 pocket. […] The second approach involved the generation of a compound library containing diverse substituents at the azidomethyl position. […] We next performed a high-throughput screen of this crude compound library using our in-house developed PARK7 fluorescence polarization (FP) assay.[15]

[1] abbreviates: 1.25 µM, crude compound library.
Setting [2] is: 1.25 µM, crude compound library, FP reagent JYQ-107.

Where two headings read alike, the source gives them in different places.

With `N#CN1CC[C@@H](C(=O)Nc2nc3c(s2)CN(C(=O)c2cc(Cn4cc(Cl)cn4)cs2)CC3)C1` [compound 191], the inhibition at 1.25 µM under setting [1] was found to be 86.7%.

As for `N#CN1CC[C@@H](C(=O)Nc2nc3c(s2)CN(C(=O)Cc2cnn(-c4ccccc4)c2)CC3)C1` [compound 148], under setting [1], the inhibition at 1.25 µM was 80.2%.

On to `Cc1ccccc1-n1cc(C(=O)N2CCc3nc(NC(=O)[C@@H]4CCN(C#N)C4)sc3C2)cn1` [compound 347], for which the inhibition at 1.25 µM under setting [2] was 87.5%. As for `Cc1ccc(-n2c(C)ccc2C)c(C(=O)N2CCc3nc(NC(=O)[C@@H]4CCN(C#N)C4)sc3C2)c1` [compound 12], the inhibition at 1.25 µM under setting [1] was 66.6%. The same measure, in the same setting: to `N#CN1CC[C@@H](C(=O)Nc2nc3c(s2)CN(C(=O)Cc2cc(-c4ccccc4)on2)CC3)C1` [compound 14] belongs 73%; to `N#CN1CC[C@@H](C(=O)Nc2nc3c(s2)CN(C(=O)C2COCCN2C(=O)OCc2ccccc2)CC3)C1` (stereo partly drawn) [compound 181], 72.7%.

Consider `N#CN1CC[C@@H](C(=O)Nc2nc3c(s2)CN(C(=O)Cc2ccc(S(=O)(=O)N4CCCC4)s2)CC3)C1` [compound 15], for which the inhibition at 1.25 µM under setting [1] is 69.5%. The same measure, in the same setting: to `N#CN1CC[C@@H](C(=O)Nc2nc3c(s2)CN(C(=O)c2ccc(-n4ccnc4)nn2)CC3)C1` [compound 92] belongs 64.4%. Same read-out and setting: to `N#CN1CC[C@@H](C(=O)Nc2nc3c(s2)CN(C(=O)c2ccc(N4CCCS4(=O)=O)cc2)CC3)C1` [compound 253] belongs 85.9%. On to `N#CN1CC[C@@H](C(=O)Nc2nc3c(s2)CN(C(=O)c2ccccc2C=O)CC3)C1` [compound 432], for which the inhibition at 1.25 µM under setting [2] amounted to 57.9%. On the same count and under the same terms, to `N#CN1CC[C@@H](C(=O)Nc2nc3c(s2)CN(C(=O)c2ccc(CBr)cc2)CC3)C1` [compound 414] belongs -19.6%; to `Cn1nc(C2CCC2)cc1C(=O)N1CCc2nc(NC(=O)[C@@H]3CCN(C#N)C3)sc2C1` [compound 350], 84.3%. For `N#CN1CC[C@@H](C(=O)Nc2nc3c(s2)CN(C(=O)Cc2ccc(NS(=O)(=O)c4cccc(C(F)(F)F)c4)cc2)CC3)C1` [compound 385], the inhibition at 1.25 µM under setting [2] is 81%. Regarding `N#CN1CC[C@@H](C(=O)Nc2nc3c(s2)CN(C(=O)C2(n4cnnn4)CC2)CC3)C1` [compound 34], under setting [1], the inhibition at 1.25 µM turned out to be 65.7%. With `N#CN1CC[C@@H](C(=O)Nc2nc3c(s2)CN(C(=O)c2ccc(OCn4cc(Cl)cn4)cc2)CC3)C1` [compound 147], under setting [1], the inhibition at 1.25 µM came out at 82.4%. As to `CC(=O)Oc1ccccc1C(=O)N1CCc2nc(NC(=O)[C@@H]3CCN(C#N)C3)sc2C1` [compound 458], the inhibition at 1.25 µM under setting [2] was found to be 67.9%.

Turning to `Cc1nc(-c2ccsc2)ccc1C(=O)N1CCc2nc(NC(=O)[C@@H]3CCN(C#N)C3)sc2C1` [compound 296], the inhibition at 1.25 µM under setting [1] was found to be 73.2%.

Take `Cc1cc(C)cc(N(CCC(=O)N2CCc3nc(NC(=O)[C@@H]4CCN(C#N)C4)sc3C2)S(=O)(=O)c2ccc(Cl)cc2)c1` [compound 299]: the inhibition at 1.25 µM under setting [1] came out at 87.8%. Still for that read-out and setting: to `Cc1nc(-c2ncccn2)sc1C(=O)N1CCc2nc(NC(=O)[C@@H]3CCN(C#N)C3)sc2C1` [compound 75] belongs 72%; to `N#CN1CC[C@@H](C(=O)Nc2nc3c(s2)CN(C(=O)C2CCN(S(=O)(=O)N4CCCCC4)CC2)CC3)C1` [compound 282], 72.8%. As to `Cc1cncc(C(=O)N2CCc3nc(NC(=O)[C@@H]4CCN(C#N)C4)sc3C2)c1` [compound 397], under setting [2], the inhibition at 1.25 µM came to 68.5%. Regarding `N#CN1CC[C@@H](C(=O)Nc2nc3c(s2)CN(C(=O)c2cccn2-c2c(Cl)cccc2Cl)CC3)C1` [compound 218], the inhibition at 1.25 µM under setting [1] turned out to be 69.2%. On to `N#CN1CC[C@@H](C(=O)Nc2nc3c(s2)CN(C(=O)C2CCN(C(=O)c4ccc(Cl)s4)CC2)CC3)C1` [compound 267], for which the inhibition at 1.25 µM under setting [1] was determined as 75.5%. Regarding `Cc1nc(-c2cccnc2)sc1C(=O)N1CCc2nc(NC(=O)[C@@H]3CCN(C#N)C3)sc2C1` [compound 128], the inhibition at 1.25 µM under setting [1] amounted to 76.5%. On to `CC1CCCC(N2CC(C(=O)N3CCc4nc(NC(=O)[C@@H]5CCN(C#N)C5)sc4C3)CC2=O)C1C` (stereo partly drawn) [compound 153], for which the inhibition at 1.25 µM under setting [1] worked out at 64.4%. Still for that read-out and setting: to `N#CN1CC[C@@H](C(=O)Nc2nc3c(s2)CN(C(=O)c2ccc(Cn4cncn4)cc2)CC3)C1` [compound 159] belongs 80.2%; to `N#CN1CC[C@@H](C(=O)Nc2nc3c(s2)CN(C(=O)CC2(n4cccc4)CCCCC2)CC3)C1` [compound 145], 83.7%; to `N#CN1CC[C@@H](C(=O)Nc2nc3c(s2)CN(C(=O)C2(NS(=O)(=O)C=Cc4ccccc4)CCCC2)CC3)C1` [compound 251], 66.6%.

`N#CN1CC[C@@H](C(=O)Nc2nc3c(s2)CN(C(=O)C2CCCN2C(=O)C2CC2)CC3)C1` (stereo partly drawn) [compound 322]: the inhibition at 1.25 µM under setting [1] came out at 67.1%. Regarding `N#CN1CC[C@@H](C(=O)Nc2nc3c(s2)CN(C(=O)Cn2cc(C=O)c4ccccc42)CC3)C1` [compound 423], the inhibition at 1.25 µM stood at 72.5%.

For the compound `N#CN1CC[C@@H](C(=O)Nc2nc3c(s2)CN(C(=O)c2ccccc2Cn2cncn2)CC3)C1` [compound 302], the inhibition at 1.25 µM under setting [1] turned out to be 66.3%. For the compound `CNS(=O)(=O)c1ccc(-c2ccc(Cl)c(Cl)c2)c(C(=O)N2CCc3nc(NC(=O)[C@@H]4CCN(C#N)C4)sc3C2)c1` [compound 305], under setting [1], the inhibition at 1.25 µM came out at 74.8%.

Turning to `Cc1nc(CN2CCCC2C(=O)N2CCc3nc(NC(=O)[C@@H]4CCN(C#N)C4)sc3C2)no1` (stereo partly drawn) [compound 43], under setting [1], the inhibition at 1.25 µM came to 71.1%. For the compound `N#CN1CC[C@@H](C(=O)Nc2nc3c(s2)CN(C(=O)C2CC2)CC3)C1` [compound 464], the inhibition at 1.25 µM under setting [2] came to 78.9%.

On to `N#CN1CC[C@@H](C(=O)Nc2nc3c(s2)CN(C(=O)c2ccc(Oc4cccc(Cl)c4Cl)nn2)CC3)C1` [compound 60], for which, under setting [1], the inhibition at 1.25 µM is 69.8%. Same read-out and setting: to `N#CN1CC[C@@H](C(=O)Nc2nc3c(s2)CN(C(=O)c2nc(N4CCCC4)ncc2Cl)CC3)C1` [compound 6] belongs 71.7%; to `CC1CN(c2ccc(C(=O)N3CCc4nc(NC(=O)[C@@H]5CCN(C#N)C5)sc4C3)cn2)CC(C)O1` (stereo partly drawn) [compound 269], 85.9%; to `N#CN1CC[C@@H](C(=O)Nc2nc3c(s2)CN(C(=O)c2ccn(-c4ccc(C(F)(F)F)cn4)n2)CC3)C1` [compound 235], 67.4%. On the same count and under the same terms, to `Cn1ncc(C2CC2)c1C(=O)N1CCc2nc(NC(=O)[C@@H]3CCN(C#N)C3)sc2C1` [compound 82] belongs 71.4%; to `Cc1oc(-c2ccsc2)nc1CC(=O)N1CCc2nc(NC(=O)[C@@H]3CCN(C#N)C3)sc2C1` [compound 343], 74.3%; to `N#CN1CC[C@@H](C(=O)Nc2nc3c(s2)CN(C(=O)c2ccc(OCc4ccncc4)cc2)CC3)C1` [compound 21], 59.5%. In the case of `CCCCNc1ccc(C(=O)N2CCc3nc(NC(=O)[C@@H]4CCN(C#N)C4)sc3C2)cc1` [compound 434], the inhibition at 1.25 µM under setting [2] is 81.3%.

`N#CN1CC[C@@H](C(=O)Nc2nc3c(s2)CN(C(=O)c2ccc(CNS(=O)(=O)c4ccc(F)c(F)c4F)cc2)CC3)C1` [compound 151]: under setting [1], the inhibition at 1.25 µM stood at 81.1%. Still for that read-out and setting: to `Cc1oc(-c2cccs2)nc1C(=O)N1CCc2nc(NC(=O)[C@@H]3CCN(C#N)C3)sc2C1` [compound 263] belongs 78.3%.

As for `N#CN1CC[C@@H](C(=O)Nc2nc3c(s2)CN(C(=O)C2CCCN2C(=O)Cc2ccccc2)CC3)C1` (stereo partly drawn) [compound 144], the inhibition at 1.25 µM under setting [1] was found to be 78.4%. For `N#CN1CC[C@@H](C(=O)Nc2nc3c(s2)CN(C(=O)c2ncn(-c4ccccc4)n2)CC3)C1` [compound 355], the inhibition at 1.25 µM under setting [2] came out at 85.3%. For `Cn1cc(S(=O)(=O)N2CCOCC2)cc1C(=O)N1CCc2nc(NC(=O)[C@@H]3CCN(C#N)C3)sc2C1` [compound 240], the inhibition at 1.25 µM under setting [1] worked out at 75.1%. Same read-out and setting: to `Cn1nc(C(=O)N2CCc3nc(NC(=O)[C@@H]4CCN(C#N)C4)sc3C2)cc1-c1cccnc1` [compound 172] belongs 86.7%. With `CC(C)C(=O)N1CCc2nc(NC(=O)[C@@H]3CCN(C#N)C3)sc2C1` [compound 392], the inhibition at 1.25 µM under setting [2] stood at 63%. Still for that read-out and setting: to `Cn1cc(-c2cc(C(=O)N3CCc4nc(NC(=O)[C@@H]5CCN(C#N)C5)sc4C3)no2)cn1` [compound 384] belongs 83%; to `CC(C)(C)OC(=O)N1CC[C@H](C(=O)N2CCc3nc(NC(=O)[C@@H]4CCN(C#N)C4)sc3C2)C1` [compound 454], 73.8%. As to `Cc1nc(COc2ccccc2C(=O)N2CCc3nc(NC(=O)[C@@H]4CCN(C#N)C4)sc3C2)no1` [compound 223], the inhibition at 1.25 µM under setting [1] came out at 74%.

Turning to `N#CN1CC[C@@H](C(=O)Nc2nc3c(s2)CN(C(=O)Cc2csc(N4CCCC4=O)n2)CC3)C1` [compound 306], under setting [1], the inhibition at 1.25 µM was determined as 76%. The same measure, in the same setting: to `Cc1ccccc1COc1cccc(CC(=O)N2CCc3nc(NC(=O)[C@@H]4CCN(C#N)C4)sc3C2)c1` [compound 204] belongs 73.6%. As to `CN1CCN(CC(=O)N2CCc3nc(NC(=O)[C@@H]4CCN(C#N)C4)sc3C2)CC1` [compound 463], the inhibition at 1.25 µM under setting [2] was determined as 67.3%. `N#CN1CC[C@@H](C(=O)Nc2nc3c(s2)CN(C(=O)c2occc2-c2ccccc2)CC3)C1` [compound 271]: the inhibition at 1.25 µM under setting [1] was 81.3%. Consider `N#CN1CC[C@@H](C(=O)Nc2nc3c(s2)CN(C(=O)C2CC(=O)NC(=O)N2)CC3)C1` (stereo partly drawn) [compound 462], for which the inhibition at 1.25 µM under setting [2] was determined as 60.1%.
